Experimental data taken from US11505575B2, “Cyclic polypeptides for PCSK9 inhibition” (Merck Sharp & Dohme LLC, priority 2018, dated 2022).
*1 amine or outer side, *2 acyl side, *3 side chain or, on linkers, in order; H or OH if unused. Where a SMILES comes first, the peptide text is derived from it. Bridges are numbered along the chain shown (N, C = ends). [ ]: non-standard residue; d: D form. X6 = C[C@@H](O)[C@H](CC(=O)[C@H](Cc1cnc[nH]1)N[*:1])C(=O)[*:2]; αMeNva(5-ylidene) = C[C@@](CCC=[*:3])(N[*:1])C(=O)[*:2]; Ala(4-isoquinolinyl) = N[C@@H](Cc1cncc2ccccc12)C(=O)O; Trp(βS-Me) = C[C@@H](c1c[nH]c2ccccc12)[C@H](N)C(=O)O; Phe(4-guanidino) = N=C(N)Nc1ccc(C[C@H](N)C(=O)O)cc1; X4 = O=C([C@H](Cc1cc2cc(F)ccc2[nH]1)N[*:1])[*:2]; X3 = N=C(N)NCc1ccc(C[C@H](N[*:1])C(=O)[*:2])cc1; Trp(7-aza) = N[C@@H](Cc1c[nH]c2ncccc12)C(=O)O; Phe(4-CH2NH2) = NCc1ccc(C[C@H](N)C(=O)O)cc1; X1 = C[C@@](CCCCC=[*:3])(N[*:1])C(=O)[*:2]; X2 = O=C(CCSCc1cccc(CSCCN[*:1])c1)[*:2]; 1Nal = N[C@@H](Cc1cccc2ccccc12)C(=O)O; mXylylene = c1cc(C[*:1])cc(C[*:2])c1; Aad = N[C@@H](CCCC(=O)O)C(=O)O; aThr = C[C@H](O)[C@H](N)C(=O)O; Agp = N=C(N)NC[C@H](N)C(=O)O; Chg = N[C@H](C(=O)O)C1CCCCC1; Tle = CC(C)(C)[C@H](N)C(=O)O; αMeK = C[C@](N)(CCCCN)C(=O)O; αMeV = CC(C)[C@](C)(N)C(=O)O; Nva = CCC[C@H](N)C(=O)O; Aib = CC(C)(N)C(=O)O; Mpa = O=C(O)CCS

Tests used:
[1] = molecular target: human PCSK9 / human LDLR EGFa domain interaction (Homo sapiens, UniProt Q8NBP7); experiment: TR-FRET assay of inhibition of the PCSK9-LDLR protein-protein interaction; assay type: binding; settings: 20 nM biotinylated human PCSK9 + 20 nM his-tagged human LDLR EGFa domain, 2 hours room temperature
Sequence of human PCSK9 / human LDLR EGFa domain interaction (Q8NBP7 153-692): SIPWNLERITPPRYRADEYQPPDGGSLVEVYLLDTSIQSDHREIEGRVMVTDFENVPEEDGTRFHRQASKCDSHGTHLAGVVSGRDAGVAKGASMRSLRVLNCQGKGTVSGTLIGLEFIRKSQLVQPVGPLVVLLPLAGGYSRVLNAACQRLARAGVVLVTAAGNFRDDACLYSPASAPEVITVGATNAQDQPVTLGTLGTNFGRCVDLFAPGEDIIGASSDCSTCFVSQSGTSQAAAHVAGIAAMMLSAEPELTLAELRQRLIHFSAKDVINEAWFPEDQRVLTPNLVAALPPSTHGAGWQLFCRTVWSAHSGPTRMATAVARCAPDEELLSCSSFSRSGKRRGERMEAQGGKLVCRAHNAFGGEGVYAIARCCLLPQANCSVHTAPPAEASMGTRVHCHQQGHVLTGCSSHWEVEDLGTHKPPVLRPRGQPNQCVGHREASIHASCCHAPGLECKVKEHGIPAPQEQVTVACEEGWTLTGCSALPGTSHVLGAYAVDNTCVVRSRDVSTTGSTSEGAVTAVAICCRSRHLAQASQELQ
Sequence of human PCSK9 / human LDLR EGFa domain interaction (Q8NBP7 31-152 partner limits assumed): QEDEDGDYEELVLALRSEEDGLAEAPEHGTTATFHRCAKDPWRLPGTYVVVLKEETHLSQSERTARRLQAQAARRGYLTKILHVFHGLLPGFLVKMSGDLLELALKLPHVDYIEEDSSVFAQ
Outline: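 Biotinylated human PCSK9 (20 nM) and His-tagged human LDLR EGFa domain (20 nM) incubated with Ulight-streptavidin and Eu-anti-His (5 nM each), 2 h at room temperature, in HEPES pH buffer with 5 mM CaCl2. TR-FRET read-out; IC50 from 4-parameter fit of dose-response.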

PCSK9 = molecular target: T1, PCSK9 (Homo sapiens, UniProt Q8NBP7); experiment: PCSK9 Alexa FRET Standard assay (displacement of AlexaFluor647-tagged cyclic peptide Reagent A); assay type: binding; settings: 0.5 nM PCSK9, 20 nM AF cyclic peptide Reagent A
T1 construct: biotin (biotinylated)
T1 sequence (Q8NBP7 153-692): as the sequence (Q8NBP7 153-692) above
Protocol: A solution containing 1 nM biotinylated PCSK9+2.5 nM Lance Streptavidin Europium (Strep-Eu) was made in 50 mM HEPES pH 7.4, 0.15 M NaCl, 5 mM CaCl2, 0.01% BSA, and 0.01% Surfactant P20. A separate solution containing 40 nM of the AlexaFluor tagged cyclic peptide was made in the same buffer system. An Echo was used to transfer 0.750 ul of compound to an assay plate followed by the addition of 15 ul of PCSK9+Stept-Eu and 15 ul of AF peptide. The final assay volume was 30.750 ul containing 0.5 nM PCSK9, 1.25 nM Strep-Eu, and 20 nM AF cyclic peptide. The reaction was incubated at room temperature for at least two hours prior to fluorescence measurements using an Envision Multilabel Reader. IC50 values were determined by fitting data to a sigmoidal dose-response curve using nonlinear regression. Ki was then calculated from the IC50 and the KD of AF cyclic peptide. Counts (B-counts) of the europium-labeled PCSK9 were followed to observe if compounds were […]. A fall off of the B-counts likely indicated a false positive of inhibition. Data from this procedure was reported as “A=‘numerical value’ (nanomolar)”

| SMILES | IC50 [1] [nM] | IC50 (PCSK9) [nM] |
| --- | --- | --- |
| CC(C)[C@]1(C)NC(=O)[C@H](Cc2ccc(O)cc2)NC(=O)[C@H](C)NC(=O)C(C)(C)NC(=O)[C@H](Cc2c[nH]c3ncccc23)NC(=O)[C@H]([C@@H](C)O)NC(=O)[C@@H]2CCCN2C(=O)[C@H](Cc2ccc(O)cc2)NC(=O)[C@H](C(C)(C)C)NC(=O)CCSCc2cccc(c2)CSC[C@@H](C(N)=O)NC(=O)[C@H](CO)NC1=O [Compound 018] ([Mpa][Tle]YPT[Trp(7-aza)][Aib]AY[αMeV]SC-NH2; linker 1-12 via mXylylene) | 1 to 100 | 1 to 100 |
| CC(C)[C@]1(C)NC(=O)[C@H](Cc2ccc(O)cc2)NC(=O)[C@H](C)NC(=O)C(C)(C)NC(=O)[C@H](Cc2c[nH]c3ncccc23)NC(=O)[C@H]([C@@H](C)O)NC(=O)[C@@H]2CCCN2C(=O)[C@H](Cc2ccc(O)cc2)NC(=O)[C@H](C(C)(C)C)NC(=O)CCSCc2cccc(c2)CSC[C@@H](C(N)=O)NC(=O)[C@H](CCCCN)NC1=O [Compound 019] ([Mpa][Tle]YPT[Trp(7-aza)][Aib]AY[αMeV]KC-NH2; linker 1-12 via mXylylene) | 21000 to 50000 | 1000 to 12100 |
| CC(C)[C@]1(C)NC(=O)[C@H](Cc2ccc(O)cc2)NC(=O)[C@H](CCC(=O)O)NC(=O)C(C)(C)NC(=O)[C@H](Cc2c[nH]c3ncccc23)NC(=O)[C@H]([C@@H](C)O)NC(=O)[C@@H]2CCCN2C(=O)[C@H](Cc2ccc(O)cc2)NC(=O)[C@H](C(C)(C)C)NC(=O)CCSCc2cccc(c2)CSC[C@@H](C(N)=O)NC(=O)[C@H]([C@H](C)O)NC1=O [Compound 020] ([Mpa][Tle]YPT[Trp(7-aza)][Aib]EY[αMeV][aThr]C-NH2; linker 1-12 via mXylylene) | 21000 to 50000 | 1000 to 12100 |
| CC(C)[C@]1(C)NC(=O)[C@H](Cc2ccc(O)cc2)NC(=O)[C@H](C)NC(=O)[C@](C)(CCCCN)NC(=O)[C@H](Cc2c[nH]c3ncccc23)NC(=O)[C@H]([C@@H](C)O)NC(=O)[C@@H]2CCCN2C(=O)[C@H](Cc2ccc(O)cc2)NC(=O)[C@H](C(C)(C)C)NC(=O)CCSCc2cccc(c2)CSC[C@@H](C(N)=O)NC(=O)[C@H]([C@@H](C)O)NC1=O [Compound 023] ([Mpa][Tle]YPT[Trp(7-aza)][αMeK]AY[αMeV]TC-NH2; linker 1-12 via mXylylene) | 1 to 100 | 1 to 100 |
| CCC[C@@H]1NC(=O)[C@H](Cc2c[nH]c3ncccc23)NC(=O)[C@H]([C@@H](C)O)NC(=O)[C@H](CNC(=N)N)NC(=O)[C@H](Cc2ccc(O)cc2)NC(=O)[C@H](Cc2cc3cc(F)ccc3[nH]2)NC(=O)[C@@H](NC(=O)[C@H](Cc2ccc(NC(=N)N)cc2)NC(C)=O)CSCc2cccc(c2)CSC[C@@H](C(N)=O)NC(=O)[C@H]([C@@H](C)O)NC(=O)[C@H](CCC)NC(=O)[C@H](Cc2ccc(O)cc2)NC(=O)[C@H](CCC(=O)O)NC1=O [Compound 091] (Ac-[Phe(4-guanidino)]C[X4]Y[Agp]T[Trp(7-aza)][Nva]EY[Nva]TC-NH2; linker 2-13 via mXylylene) | 100 to 1000 | 1 to 100 |
| CCC[C@@H]1NC(=O)[C@H](Cc2c[nH]c3ncccc23)NC(=O)[C@H]([C@@H](C)O)NC(=O)[C@H](Cc2cnc[nH]2)NC(=O)[C@H](Cc2ccc(O)cc2)NC(=O)[C@H]([C@@H](C)c2c[nH]c3ccccc23)NC(=O)CCSCc2cccc(c2)CSC[C@@H](C(N)=O)NC(=O)[C@H]([C@@H](C)O)NC(=O)[C@H](CCC)NC(=O)[C@H](Cc2ccc(O)cc2)NC(=O)[C@H](CCC(=O)O)NC1=O [Compound 097] ([Mpa][Trp(βS-Me)]YHT[Trp(7-aza)][Nva]EY[Nva]TC-NH2; linker 1-12 via mXylylene) | 1 to 100 | 1 to 100 |
| CCC[C@@H]1NC(=O)[C@H](Cc2ccc(O)cc2)NC(=O)[C@H](C)NC(=O)[C@]2(C)CC/C=C\CCCC[C@](C)(NC1=O)C(=O)N[C@H](C(N)=O)CCCCNC(=O)CCC[C@H](NC(C)=O)C(=O)N[C@@H](C(C)(C)C)C(=O)N[C@@H](Cc1ccc(O)cc1)C(=O)N1CCC[C@H]1C(=O)N[C@@H]([C@@H](C)O)C(=O)N[C@@H](Cc1c[nH]c3ncccc13)C(=O)N2 [Compound 104] (Ac-[Aad][Tle]YPT[Trp(7-aza)][αMeNva(5-ylidene)]AY[Nva][X1]K-NH2; lactam 1-12; staple (Z) 7-11) | 1000 to 12100 | 100 to 1000 |
| CCC[C@@H]1NC(=O)[C@H](Cc2ccc(O)cc2)NC(=O)[C@@H]2CCC(=O)NCCCC[C@H](NC(=O)[C@H](Cc3ccc(O)cc3)NC(=O)[C@H](C(C)(C)C)NC(=O)CCSCc3cccc(c3)CSC[C@@H](C(N)=O)NC(=O)[C@H]([C@@H](C)O)NC1=O)C(=O)N[C@@H]([C@@H](C)O)C(=O)N[C@@H](Cc1c[nH]c3ncccc13)C(=O)NC(C)(C)C(=O)N2 [Compound 110] ([Mpa][Tle]YKT[Trp(7-aza)][Aib]EY[Nva]TC-NH2; linker 1-12 via mXylylene; lactam 4-8) | 1 to 100 | 1 to 100 |

Next, values leading:

| IC50 [1] [nM] | IC50 (PCSK9) [nM] | SMILES |
| --- | --- | --- |
| 100 to 1000 | 1 to 100 | CC(C)[C@@H]1NC(=O)CCSCc2cccc(c2)CSCCNC(=O)[C@H](C)NC(=O)[C@](C)(C(C)C)NC(=O)[C@H](Cc2ccccc2)NC(=O)[C@H](C)NC(=O)C(C)(C)NC(=O)[C@H](Cc2cccc3ccccc23)NC(=O)[C@H]([C@@H](C)O)NC(=O)[C@@H]2CCCN2C(=O)[C@H](Cc2ccccc2)NC1=O [Compound 021] (cyclo([1Nal][Aib]AF[αMeV]A[X2]VFPT)) |
| 100 to 1000 | 1 to 100 | CCC[C@@H]1NC(=O)[C@H](Cc2cccc3ccccc23)NC(=O)[C@H]([C@@H](C)O)NC(=O)[C@@H]2CCCN2C(=O)[C@H](Cc2ccccc2)NC(=O)[C@H](C(C)C)NC(=O)CCSCc2cccc(c2)CSCCNC(=O)[C@H](C)NC(=O)[C@](C)(C(C)C)NC(=O)[C@H](Cc2ccccc2)NC(=O)[C@H](C)NC1=O [Compound 022] (cyclo([1Nal][Nva]AF[αMeV]A[X2]VFPT)) |
| 100 to 1000 | 100 to 1000 | CCC[C@@H]1NC(=O)[C@H](Cc2cncc3ccccc23)NC(=O)[C@H]([C@@H](C)O)CC(=O)[C@H](Cc2cnc[nH]2)NC(=O)[C@H](Cc2ccc(O)cc2)NC(=O)[C@H](C(C)(C)C)NC(=O)CCSCc2cccc(c2)CSC[C@@H](C(N)=O)NC(=O)[C@H]([C@@H](C)O)NC(=O)[C@H](CCC)NC(=O)[C@H](Cc2ccc(O)cc2)NC(=O)[C@H](CCC(=O)O)NC1=O [Compound 052] ([Mpa][Tle]Y[X6][Ala(4-isoquinolinyl)][Nva]EY[Nva]TC-NH2; linker 1-11 via mXylylene) |
| 100 to 1000 | 1 to 100 | CCC[C@@H]1NC(=O)[C@H](Cc2c[nH]c3ncccc23)NC(=O)[C@H]([C@@H](C)O)NC(=O)[C@H](Cc2cnc[nH]2)NC(=O)[C@H](Cc2ccc(O)cc2)NC(=O)[C@H](C(C)(C)C)NC(=O)CCSCc2cccc(c2)CSC[C@@H](C(N)=O)NC(=O)[C@H]([C@@H](C)O)NC(=O)[C@H](Cc2ccc(O)cc2)NC(=O)[C@H](Cc2ccc(O)cc2)NC(=O)[C@H](CCC(=O)O)NC1=O [Compound 071] ([Mpa][Tle]YHT[Trp(7-aza)][Nva]EYYTC-NH2; linker 1-12 via mXylylene) |
| 100 to 1000 | 100 to 1000 | CCC[C@@H]1NC(=O)[C@H](Cc2c[nH]c3ncccc23)NC(=O)[C@H]([C@@H](C)O)NC(=O)[C@H](Cc2cnc[nH]2)NC(=O)[C@H](Cc2ccc(O)cc2)NC(=O)[C@H](Cc2ccc(CN)cc2)NC(=O)CCSCc2cccc(c2)CSC[C@@H](C(N)=O)NC(=O)[C@H]([C@@H](C)O)NC(=O)[C@H](CCC)NC(=O)[C@H](Cc2ccc(O)cc2)NC(=O)[C@H](CCC(=O)O)NC1=O [Compound 086] ([Mpa][Phe(4-CH2NH2)]YHT[Trp(7-aza)][Nva]EY[Nva]TC-NH2; linker 1-12 via mXylylene) |
| 21000 to 50000 | 100 to 1000 | CCC[C@@H]1NC(=O)[C@H](Cc2c[nH]c3ncccc23)NC(=O)[C@H]([C@@H](C)O)NC(=O)[C@H](Cc2cnc[nH]2)NC(=O)[C@H](Cc2ccc(O)cc2)NC(=O)[C@H](C(C)(C)C)NC(=O)[C@@H](NC(=O)[C@H](Cc2ccc(CNC(=N)N)cc2)NC(C)=O)CSCc2cccc(c2)CSC[C@@H](C(N)=O)NC(=O)[C@H]([C@@H](C)O)NC(=O)[C@H](CCC)NC(=O)[C@H](Cc2ccc(O)cc2)NC(=O)[C@H](CCC(=O)O)NC1=O [Compound 098] (Ac-[X3]C[Tle]YHT[Trp(7-aza)][Nva]EY[Nva]TC-NH2; linker 2-13 via mXylylene) |
| 1 to 100 | 1 to 100 | CCC[C@@H]1NC(=O)[C@H](Cc2c[nH]c3ncccc23)NC(=O)[C@H]([C@@H](C)O)NC(=O)[C@@H]2CCCCNC(=O)CC[C@H](NC1=O)C(=O)N[C@@H](Cc1ccc(O)cc1)C(=O)N[C@@H](C1CCCCC1)C(=O)N[C@@H]([C@@H](C)O)C(=O)N[C@@H](C(N)=O)CSCc1cccc(c1)CSCCC(=O)N[C@@H](C(C)(C)C)C(=O)N[C@@H](Cc1ccc(O)cc1)C(=O)N2 [Compound 107] ([Mpa][Tle]YKT[Trp(7-aza)][Nva]EY[Chg]T[dC]-NH2; linker 1-12 via mXylylene; lactam 4-8) |
